For 2 molecules, EC50, Pax7 and Emax results are on record in EP4029501A1, “COMBINATION OF POLYAROMATIC UREA DERIVATIVES AND GLUCOCORTICOID OR HDAC INHIBITOR FOR THE TREATMENT OF DISEASES OR CONDITIONS ASSOCIATED WITH MUSCLE CELLS AND/OR SATELLITE CELLS” (Anagenesis Biotechnologies, priority 2021, dated 2022).

Some results are limits rather than exact numbers.

Test [1] concerns muscle progenitors derived from DMD hiPSC. Briefly: Myotube assay: total myotube area per well (alpha-actinin staining). The test is classed as cell-based, human. Particulars: Homo sapiens, Myotube, comparative compounds, same assay as Table 3, NA: non active. Summed up: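 DMD hiPSC-derived muscle progenitors (NCRM-1 background) plated at 3500 cells/well in K5 medium with 5 µM Y-27632, then exposed to compound at 1.5 nM–30 µM for 3 days at 37°C. Cells fixed on day 7, alpha-actinin-immunostained and total myotube area per well quantified; duplicates averaged, EC50 and normalized myotube area derived.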

The test system of the next test is Pax7-positive cells. As to the kind of experiment: Myotube assay: Pax7-positive (satellite-like) cell quantification. Also on record: key to Pax7: (-) : Depletes the pool of cells, while positively affects the myotubes; (+) : Maintains or increases the pool of cells, with at least 1 of the highest concentration known to be cytotoxic; (++) Maintains or increases the pool of cells, without any toxicity. Particulars: comparative compounds, effect on pool of Pax7-positive cells. The test is classed as cell-based, human. An excerpt:
The efficacy of said compound for use in treating, ameliorating, delaying, curing and/or preventing a disease or condition associated with muscle cells and/or satellite cells is positively correlated with the generation of myotubes (i.e. the increase of the area occupied by myotubes on the assay) and/or satellite cells (i.e. the increase of the number of satellite cells) in the assay after adding said compound. The generation of myotubes by the addition of said compound is expressed as the EC50 value, the concentration of said compound that corresponds with the half-maximal generation of myotubes, and the MA (normalized myotube area) value, the normalized area occupied by generated myotubes on the assay. […] Since muscle cells are formed from myotubes during myogenesis, the generation of myotubes in the assay is a good indicator of the ability of said compound to induce the formation of functional muscle cells in vivo. The number of satellite cells is measured as the percentage of Pax7 positive cells, relative to the total number of cells in the assay, as shown in Figure 3. The percentage of Pax7 is a good indicator of the ability of said compound to induce the formation of satellite cells which are able to play a role in muscle repair and regeneration in vivo.
DMD human induced pluripotent stem cells (hereafter "DMD hiPSC"), generated from the NCRM-1 hiPSC WT cell line by gene editing, or WT human induced pluripotent stem cells (hereafter "WT hiPSC"), being NCRM-1 hiPSC wt cell line, have been differentiated according to Chal et al. 2015, 2016, to produce muscle progenitors (hereafter "hMP"). The hMP population contains satellite-like cells (i.e Pax7-positive cells) and satellite cells' progenies (i.e. Myogenin-positive cells).
Figure 1 provides an example of a Myotube assay workflow. At day 0, hMP are thawed and 3.1 million cells are plated into a T75-flask coated with hESC-qualified Matrigel™ (Corning) in SkGM proliferating medium (PromoCells), supplemented with 5 µM Y-27632 (Tocris Bioscience). On day 2, SkGM proliferating medium is refreshed. On day 4, hMP are harvested and transferred into a 384-well plate coated with collagen type I at a density of 3500 cells/well in a DMEM-based medium, containing 5% of knockout serum replacement (Gibco), 1% PenStrep (Gibco), 1% MEM NEAA (Gibco) and 0.1 mM 2-mercaptoethanol (Gibco) (hereafter "K5 medium") and 5 µM Y-27632. Compounds to be tested are then added in the medium and incubated for 3 days at 37°C. On day 7, cells are fixed and immunostained. For example, myotubes (alpha-actinin staining) and satellite-like (Pax7 staining) cells can be analyzed for total myotube area per well or Pax7-positive cell quantification.
DMD hMP were put in the Myotube assay according to the workflow described in Example 2.1. In particular, compound (i) was added at concentrations ranging from 1.5 nM to 30 µM, starting from day 4. hMP were cultivated for three more days in presence of compound (i), then fixed and analyzed for percentage of Pax7-positive cells and nuclei number. Duplicates of each condition were averaged.
(-) : Depletes the pool of cells, while positively affects the myotubes; (+) : Maintains or increases the pool of cells, with at least 1 of the highest concentration known to be cytotoxic; and (++) Maintains or increases the pool of cells, without any toxicity.

One may read the EC50 as the concentration at which the effect is half-maximal. `CNC(=O)c1cc(Oc2ccc(NC(=O)Nc3cc(C(C)(C)C)nn3-c3ccc4ncccc4c3)c(F)c2)ccn1` [Rebastinib, reference compound] came in with a half-maximal effective concentration (EC50) in test [1] of 1 to 5 µM. Also, the Pax7 entry in the test on Pax7-positive cells is listed as “+”.
Regarding `CNC(=O)c1cc(Oc2ccc(NC(=O)Nc3ccc(Cl)c(C(F)(F)F)c3)cc2)ccn1` [Sorafenib], the Emax in test [1] (72 h, read-out: MA) is 25 to 50%. This molecule came in with an EC50 in test [1] not below 5 µM. The Pax7 result in the test with Pax7-positive cells is reported as “++”.
